Laboratory results reported in patent US20230085307A1, “PYRIDAZINONE COMPOUND AND HERBICIDE” (NISSAN CHEMICAL CORPORATION, priority 2019, published 2023).

Experiments:
barnyard grass [1] = test: Test Example 3: herbicidal effect by foliage application, Wagner pot (Table 18, symbol H); type: in vivo, barnyard grass (Echinochloa crus-galli); settings: 320 g/ha
In short: (§1)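 Plants were sown in alluvial soil held under 0.1–0.5 cm standing water and grown 14 days in a greenhouse at 25–30 °C. An emulsifiable formulation, water-diluted to the set dose, was then sprayed onto the foliage, and effects were scored three weeks later using previously defined criteria.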

green foxtail [2] = test: Test Example 5: herbicidal effect by foliage application, plastic box (Table 20, symbol G); type: in vivo, green foxtail (Setaria viridis); settings: foliage application, AAH 320 g/ha, three weeks after application
In short: (§2)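 Sow seeds spot-wise in sterilized diluvial soil; cover with ~1.5 cm soil. Grow 14 days in greenhouse, 25° C. to 30° C. Spray foliage with emulsion diluted to predetermined amount. Rate effect after 3 weeks.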

windgrass [3] = test: Test Example 5: herbicidal effect by foliage application, plastic box (Table 20, symbol L); type: in vivo, windgrass (Apera spica-venti); settings: foliage application, AAH 320 g/ha, three weeks after application
In short: as §2

chickweed [4] = test: Test Example 5: herbicidal effect by foliage application, plastic box (Table 20, symbol P); type: in vivo, common chickweed (Stellaria media); settings: foliage application, AAH 320 g/ha, three weeks after application
In short: as §2

barnyard grass [5] = test: Test Example 4: herbicidal effect by soil treatment (Table 19, symbol H); type: in vivo, barnyard grass (Echinochloa crus-galli)
In short: (§3)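 Applied as a water-diluted emulsion, the compound was sprayed onto soil covering newly sown seeds. Evaluation came three weeks after application, in a greenhouse held at 25° C. to 30° C.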

persian speedwell [6] = test: Test Example 4: herbicidal effect by soil treatment (Table 19, symbol R); type: in vivo, Persian speedwell (Veronica persica)
In short: as §3

Italian ryegrass [7] = test: Test Example 4: herbicidal effect by soil treatment (Table 19, symbol K); type: in vivo, Italian ryegrass (Lolium multiflorum)
In short: as §3

chickweed [8] = test: Test Example 4: herbicidal effect by soil treatment (Table 19, symbol P); type: in vivo, common chickweed (Stellaria media)
In short: as §3

lambsquarters [9] = test: Test Example 4: herbicidal effect by soil treatment (Table 19, symbol O); type: in vivo, lambsquarters (Chenopodium album)
In short: as §3

southern crabgrass [10] = test: Test Example 4: herbicidal effect by soil treatment (Table 19, symbol F); type: in vivo, southern crabgrass (Digitaria ciliaris)
In short: as §3

redroot pigweed [11] = test: Test Example 5: herbicidal effect by foliage application, plastic box (Table 20, symbol N); type: in vivo, redroot pigweed (Amaranthus retroflexus); settings: foliage application, AAH 320 g/ha, three weeks after application
In short: as §2

velvetleaf [12] = test: Test Example 5: herbicidal effect by foliage application, plastic box (Table 20, symbol M); type: in vivo, velvetleaf (Abutilon theophrasti); settings: foliage application, AAH 320 g/ha, three weeks after application
In short: as §2

velvetleaf [13] = test: Test Example 4: herbicidal effect by soil treatment (Table 19, symbol M); type: in vivo, velvetleaf (Abutilon theophrasti)
In short: as §3

wild oat [14] = test: Test Example 5: herbicidal effect by foliage application, plastic box (Table 20, symbol I); type: in vivo, wild oat (Avena fatua); settings: foliage application, AAH 320 g/ha, three weeks after application
In short: as §2

windgrass [15] = test: Test Example 4: herbicidal effect by soil treatment (Table 19, symbol L); type: in vivo, windgrass (Apera spica-venti)
In short: as §3

barnyard grass [16] = test: Test Example 5: herbicidal effect by foliage application, plastic box (Table 20, symbol H); type: in vivo, barnyard grass (Echinochloa crus-galli); settings: foliage application, AAH 320 g/ha, three weeks after application
In short: as §2

blackgrass [17] = test: Test Example 5: herbicidal effect by foliage application, plastic box (Table 20, symbol J); type: in vivo, blackgrass (Alopecurus myosuroides); settings: foliage application, AAH 320 g/ha, three weeks after application
In short: as §2

redroot pigweed [18] = test: Test Example 4: herbicidal effect by soil treatment (Table 19, symbol N); type: in vivo, redroot pigweed (Amaranthus retroflexus)
In short: as §3

rice flat sedge = test: Test Example 3: herbicidal effect by foliage application, Wagner pot (Table 18, symbol E); type: in vivo, rice flat sedge (Cyperus iria); settings: 320 g/ha
In short: as §1

green foxtail [19] = test: Test Example 4: herbicidal effect by soil treatment (Table 19, symbol G); type: in vivo, green foxtail (Setaria viridis)
In short: as §3

blackgrass [20] = test: Test Example 4: herbicidal effect by soil treatment (Table 19, symbol J); type: in vivo, blackgrass (Alopecurus myosuroides)
In short: as §3

wild oat [21] = test: Test Example 4: herbicidal effect by soil treatment (Table 19, symbol I); type: in vivo, wild oat (Avena fatua)
In short: as §3

Chinese sprangletop = test: Test Example 3: herbicidal effect by foliage application, Wagner pot (Table 18, symbol D); type: in vivo, chinese sprangletop (Leptochloa chinensis); settings: 320 g/ha
In short: as §1

Italian ryegrass [22] = test: Test Example 5: herbicidal effect by foliage application, plastic box (Table 20, symbol K); type: in vivo, Italian ryegrass (Lolium multiflorum); settings: foliage application, AAH 320 g/ha, three weeks after application
In short: as §2

persian speedwell [23] = test: Test Example 5: herbicidal effect by foliage application, plastic box (Table 20, symbol R); type: in vivo, Persian speedwell (Veronica persica); settings: foliage application, AAH 320 g/ha, three weeks after application
In short: as §2

southern crabgrass [24] = test: Test Example 5: herbicidal effect by foliage application, plastic box (Table 20, symbol F); type: in vivo, southern crabgrass (Digitaria ciliaris); settings: foliage application, AAH 320 g/ha, three weeks after application
In short: as §2

lambsquarters [25] = test: Test Example 5: herbicidal effect by foliage application, plastic box (Table 20, symbol O); type: in vivo, lambsquarters (Chenopodium album); settings: foliage application, AAH 320 g/ha, three weeks after application
In short: as §2

[26] = amount of applied herbicide 320 g/ha

| Structure (SMILES) | herbicidal effect on H (barnyard grass), rating 0-5 (barnyard grass [1]) | G: green foxtail, herbicidal effect (green foxtail [2]) | L: windgrass, herbicidal effect (windgrass [3]) | P: chickweed, herbicidal effect (chickweed [4]) | N: redroot pigweed, herbicidal effect (redroot pigweed [11]) | M: velvetleaf, herbicidal effect (velvetleaf [12]) | I: wild oat, herbicidal effect (wild oat [14]) | H: barnyard grass, herbicidal effect (barnyard grass [16]) | J: blackgrass, herbicidal effect (blackgrass [17]) | herbicidal effect on E (rice flat sedge), rating 0-5 (rice flat sedge) | herbicidal effect on D (Chinese sprangletop), rating 0-5 (Chinese sprangletop) | K: Italian ryegrass, herbicidal effect (Italian ryegrass [22]) | R: persian speedwell, herbicidal effect (persian speedwell [23]) | F: southern crabgrass, herbicidal effect (southern crabgrass [24]) | O: lambsquarters, herbicidal effect (lambsquarters [25]) | other results |
| --- | --- | --- | --- | --- | --- | --- | --- | --- | --- | --- | --- | --- | --- | --- | --- | --- |
| C#CCOc1ccccc1-c1sc2ccccc2c1-c1c(O)c(C)nn(C)c1=O [1-112] | 4 (Herbicidal rate of 70% or more and less than 90%) | 5 (Herbicidal rate of 90% or more (almost completely withered)) | 5 (Herbicidal rate of 90% or more (almost completely withered)) | 5 (Herbicidal rate of 90% or more (almost completely withered)) | 5 (Herbicidal rate of 90% or more (almost completely withered)) | 4 (Herbicidal rate of 70% or more and less than 90%) | 5 (Herbicidal rate of 90% or more (almost completely withered)) | 4 (Herbicidal rate of 70% or more and less than 90%) | 5 (Herbicidal rate of 90% or more (almost completely withered)) | 3 (Herbicidal rate of 40% or more and less than 70%) | 3 (Herbicidal rate of 40% or more and less than 70%) | 3 (Herbicidal rate of 40% or more and less than 70%) | 5 (Herbicidal rate of 90% or more (almost completely withered)) | 5 (Herbicidal rate of 90% or more (almost completely withered)) | 1 (Herbicidal rate of 5% or more and less than 20%) | herbicidal effect rating, H: barnyard grass (barnyard grass [5]; [26]): 0 (Herbicidal rate of 5% or less (almost no effect)); herbicidal effect rating, R: persian speedwell (persian speedwell [6]; [26]): 5 (Herbicidal rate of 90% or more (almost completely withered)); herbicidal effect rating, K: Italian ryegrass (Italian ryegrass [7]; [26]): 0 (Herbicidal rate of 5% or less (almost no effect)); herbicidal effect rating, P: chickweed (chickweed [8]; [26]): 5 (Herbicidal rate of 90% or more (almost completely withered)); herbicidal effect rating, O: lambsquarters (lambsquarters [9]; [26]): 0 (Herbicidal rate of 5% or less (almost no effect)); herbicidal effect rating, F: southern crabgrass (southern crabgrass [10]; [26]): 0 (Herbicidal rate of 5% or less (almost no effect)); herbicidal effect rating, M: velvetleaf (velvetleaf [13]; [26]): 3 (Herbicidal rate of 40% or more and less than 70%); herbicidal effect rating, L: windgrass (windgrass [15]; [26]): 5 (Herbicidal rate of 90% or more (almost completely withered)); herbicidal effect rating, N: redroot pigweed (redroot pigweed [18]; [26]): 1 (Herbicidal rate of 5% or more and less than 20%); herbicidal effect rating, G: green foxtail (green foxtail [19]; [26]): 1 (Herbicidal rate of 5% or more and less than 20%); herbicidal effect rating, J: blackgrass (blackgrass [20]; [26]): 4 (Herbicidal rate of 70% or more and less than 90%); herbicidal effect rating, I: wild oat (wild oat [21]; [26]): 0 (Herbicidal rate of 5% or less (almost no effect)) |
| C=Cc1ccc(-c2sc3ccccc3c2-c2c(O)c(C)nn(C)c2=O)cc1 [1-127] | 0 (Herbicidal rate of 5% or less (almost no effect)) | 4 (Herbicidal rate of 70% or more and less than 90%) | 5 (Herbicidal rate of 90% or more (almost completely withered)) | 5 (Herbicidal rate of 90% or more (almost completely withered)) | 5 (Herbicidal rate of 90% or more (almost completely withered)) | 5 (Herbicidal rate of 90% or more (almost completely withered)) | 0 (Herbicidal rate of 5% or less (almost no effect)) | 4 (Herbicidal rate of 70% or more and less than 90%) | 1 (Herbicidal rate of 5% or more and less than 20%) | 5 (Herbicidal rate of 90% or more (almost completely withered)) | 3 (Herbicidal rate of 40% or more and less than 70%) | 5 (Herbicidal rate of 90% or more (almost completely withered)) | 5 (Herbicidal rate of 90% or more (almost completely withered)) | 2 (Herbicidal rate of 20% or more and less than 40%) | 5 (Herbicidal rate of 90% or more (almost completely withered)) | H: barnyard grass, herbicidal effect rating (barnyard grass [5]; AAH 320 g/ha): 0 (Herbicidal rate of 5% or less (almost no effect)); R: persian speedwell, herbicidal effect rating (persian speedwell [6]; AAH 320 g/ha): 4 (Herbicidal rate of 70% or more and less than 90%); K: Italian ryegrass, herbicidal effect rating (Italian ryegrass [7]; AAH 320 g/ha): 5 (Herbicidal rate of 90% or more (almost completely withered)); P: chickweed, herbicidal effect rating (chickweed [8]; AAH 320 g/ha): 0 (Herbicidal rate of 5% or less (almost no effect)); O: lambsquarters, herbicidal effect rating (lambsquarters [9]; AAH 320 g/ha): 4 (Herbicidal rate of 70% or more and less than 90%); F: southern crabgrass, herbicidal effect rating (southern crabgrass [10]; AAH 320 g/ha): 0 (Herbicidal rate of 5% or less (almost no effect)); M: velvetleaf, herbicidal effect rating (velvetleaf [13]; AAH 320 g/ha): 2 (Herbicidal rate of 20% or more and less than 40%); L: windgrass, herbicidal effect rating (windgrass [15]; AAH 320 g/ha): 0 (Herbicidal rate of 5% or less (almost no effect)); N: redroot pigweed, herbicidal effect rating (redroot pigweed [18]; AAH 320 g/ha): 5 (Herbicidal rate of 90% or more (almost completely withered)); G: green foxtail, herbicidal effect rating (green foxtail [19]; AAH 320 g/ha): 0 (Herbicidal rate of 5% or less (almost no effect)); J: blackgrass, herbicidal effect rating (blackgrass [20]; AAH 320 g/ha): 0 (Herbicidal rate of 5% or less (almost no effect)); I: wild oat, herbicidal effect rating (wild oat [21]; AAH 320 g/ha): 0 (Herbicidal rate of 5% or less (almost no effect)) |
